One data set deals with mouse. As to conditions: Combined chronic toxicity/carcinogenicity, b6c3f1, Oral, Feed, dose end: 106 week, group: systemic.
Data set [1] deals with rat. As to conditions: Combined chronic toxicity/carcinogenicity; fischer; Oral; Feed; dose end: 105 week; group: systemic; systemic / in life observation / body weight / body weight + systemic / pathology microscopic / kidney / nephropathy + systemic / pathology ….
The test system of data set [2] is rat. As to conditions: Subchronic oral toxicity in rodents, sprague dawley, Gavage/Intubation, dose end: 90 day, group: systemic.
Data set [3] deals with rat. The note with it: Sub-acute repeat dose toxicity; sprague dawley; Oral; Gavage/Intubation; dose end: 1 week; group: systemic; systemic / in life observation / food consumption / food consumption + systemic / in life observation / water consumption / water ….
In data set [4] the test system is rat. As to conditions: Subchronic dermal toxicity, sprague dawley, Topical, dose end: 90 day, group: systemic, systemic / in life observation / clinical signs / desquamation + systemic / in life observation / clinical signs / erythema + systemic / in ….
Another data set relates to rabbit. As to conditions: Prenatal developmental toxicity study, new zealand white, Oral, Gavage/Intubation, dose end: 28 GD.
Data set [5] relates to rat. The note with it: Multigenerational reproductive toxicity study, sprague dawley, Oral, Gavage/Intubation, dose end: 1 generation.
Setting [6] is: systemic / in life observation / body weight / body weight.
The mark [7] stands for this setting: systemic / in life observation / body weight / body weight + systemic / pathology microscopic / blood / lymphoma nos + systemic / pathology ….
Setting [8] is: systemic / pathology microscopic / stomach / hyperplasia + systemic / in life observation / clinical signs / abnormal respiratory sounds + ….
Where [9] appears, read: systemic / pathology microscopic / stomach / hyperplasia + systemic / pathology microscopic / stomach / edema + systemic / pathology ….
The mark [10] stands for this setting: group: developmental, developmental / developmental malformation / bone / malpositioned + developmental / developmental malformation / bone / supernumerary + ….
Where [11] appears, read: group: parental, systemic / in life observation / clinical signs / fur (altered appearance) + systemic / in life observation / clinical signs / hunched ….
Setting [12] is: group: reproductive, reproductive / offspring survival early / dead fetuses / dead fetuses.

The structures appear in SMILES notation.

On to `c1ccc2n[nH]nc2c1` [1,2,3-Benzotriazole], for which, in the data set with mouse (setting [6]), the LOAEL was determined as 1760 mg/kg/day and the NOAEL was under 1760 mg/kg/day. Moreover, in the data set on mouse (setting [7]), the LEL is 1760 mg/kg/day and the NEL was under 1760 mg/kg/day. In the data set on rat [1], the LEL was 335 mg/kg/day, the LOAEL turned out to be 335 mg/kg/day, the NEL was under 335 mg/kg/day and the NOAEL was under 335 mg/kg/day.

`O=S1CCON=C1c1cc2ccccc2s1` (stereo not drawn) [Bethoxazin]: the NEL in the data set on rat [2] (setting [8]) is 1.25 mg/kg/day; in the data set on rat [3] it was under 50 mg/kg/day; in the data set with rat [4], under 0.1 mg/kg/day; in the data set with rabbit (setting [10]) it was 3 mg/kg/day; in the data set with rat [5] (setting [11]), under 10 mg/kg/day; in the data set on rat [5] (setting [12]) it was 30 mg/kg/day. In addition, the NOAEL in the data set with rat [2] (setting [8]) is 1.25 mg/kg/day; in the data set on rat [3] it was under 50 mg/kg/day; in the data set on rat [4], under 0.1 mg/kg/day; with rat [5] (setting [11]) it was 30 mg/kg/day; in the data set with rat [5] (setting [12]), at least 70 mg/kg/day. Moreover, the LEL worked out at 5 mg/kg/day in the data set with rat [2] (setting [9]); 50 mg/kg/day in the data set with rat [3]; 0.1 mg/kg/day in the data set with rat [4]; 10 mg/kg/day with rabbit (group: developmental, developmental / developmental malformation / bone / supernumerary); 30 mg/kg/day in the data set on rabbit (group: maternal, systemic / in life observation / body weight / body weight gain + systemic / in life observation / food consumption / food consumption + …); 10 mg/kg/day with rat [5] (setting [11]). Also, in the data set on rat [5] (setting [12]), the LEL is 70 mg/kg/day. In addition, the LOAEL turned out to be 5 mg/kg/day with rat [2] (setting [9]); 50 mg/kg/day in the data set with rat [3]; 0.1 mg/kg/day in the data set with rat [4]; 30 mg/kg/day in the data set with rabbit (setting [10]); 30 mg/kg/day in the data set with rabbit (group: maternal, systemic / in life observation / body weight / body weight gain + systemic / in life observation / food consumption / food consumption); 70 mg/kg/day with rat [5] (setting [11]). The compound also yielded an LOAEL in the data set with rat [5] (setting [12]) of over 70 mg/kg/day.

What is called LOAEL is the lowest dose or exposure tested at which an adverse effect was seen. Broadly, the NOAEL is the highest tested level that showed no adverse finding.

These data come from EPA's ToxRefDB 2.
